Each structure is given as a SMILES string. Bounds are passed on as bounds.

Series [1] in a line: Oral availability (comparison of compound 39 and compound 9). Type of series: in vivo. To be noted: compared with compound 9 (1294).
For the next series, the system named is C. parvum. Kind of series: Inhibition of C. parvum proliferation. Type of series: cell-based. The note with it: Cryptosporidium parvum; Table 4; read-out: Inhibit Parasite Prolif. (EC50, μM) C. parvum.
Series [2] can be described thus: Stability (comparison of compound 39 and compound 9).
The next series concerns the target Kdr (Homo sapiens (Human), UniProt P35968). Kind of series: Kinase panel selectivity: Kdr. Type of series: biochemical.
A further series has as its system C. parvum Iowa strain. Kind of series: C. parvum infection in mice (beige/SCID mouse model). The note with it: oral gavage 20 mg/kg 8 AM and 40 mg/kg 5 PM, days 5-14 after infection; each time point except Days 0 and 3; p≦0.05.
Series [3] relates to 80 human protein kinases (hPKs). The experiment in a line: AbbVie panel of 80 human protein kinases. The class given is biochemical. To be noted: at levels up to 3 μM; tested by AbbVie.
A short description of a further series: Solubility at pH 6.5. The class given is physicochemical.
For a further series, the target named is hERG (Homo sapiens (Human), UniProt Q12809). Kind of series: biochemical. The class given is binding.
Chain of hERG (Q12809 whole entry): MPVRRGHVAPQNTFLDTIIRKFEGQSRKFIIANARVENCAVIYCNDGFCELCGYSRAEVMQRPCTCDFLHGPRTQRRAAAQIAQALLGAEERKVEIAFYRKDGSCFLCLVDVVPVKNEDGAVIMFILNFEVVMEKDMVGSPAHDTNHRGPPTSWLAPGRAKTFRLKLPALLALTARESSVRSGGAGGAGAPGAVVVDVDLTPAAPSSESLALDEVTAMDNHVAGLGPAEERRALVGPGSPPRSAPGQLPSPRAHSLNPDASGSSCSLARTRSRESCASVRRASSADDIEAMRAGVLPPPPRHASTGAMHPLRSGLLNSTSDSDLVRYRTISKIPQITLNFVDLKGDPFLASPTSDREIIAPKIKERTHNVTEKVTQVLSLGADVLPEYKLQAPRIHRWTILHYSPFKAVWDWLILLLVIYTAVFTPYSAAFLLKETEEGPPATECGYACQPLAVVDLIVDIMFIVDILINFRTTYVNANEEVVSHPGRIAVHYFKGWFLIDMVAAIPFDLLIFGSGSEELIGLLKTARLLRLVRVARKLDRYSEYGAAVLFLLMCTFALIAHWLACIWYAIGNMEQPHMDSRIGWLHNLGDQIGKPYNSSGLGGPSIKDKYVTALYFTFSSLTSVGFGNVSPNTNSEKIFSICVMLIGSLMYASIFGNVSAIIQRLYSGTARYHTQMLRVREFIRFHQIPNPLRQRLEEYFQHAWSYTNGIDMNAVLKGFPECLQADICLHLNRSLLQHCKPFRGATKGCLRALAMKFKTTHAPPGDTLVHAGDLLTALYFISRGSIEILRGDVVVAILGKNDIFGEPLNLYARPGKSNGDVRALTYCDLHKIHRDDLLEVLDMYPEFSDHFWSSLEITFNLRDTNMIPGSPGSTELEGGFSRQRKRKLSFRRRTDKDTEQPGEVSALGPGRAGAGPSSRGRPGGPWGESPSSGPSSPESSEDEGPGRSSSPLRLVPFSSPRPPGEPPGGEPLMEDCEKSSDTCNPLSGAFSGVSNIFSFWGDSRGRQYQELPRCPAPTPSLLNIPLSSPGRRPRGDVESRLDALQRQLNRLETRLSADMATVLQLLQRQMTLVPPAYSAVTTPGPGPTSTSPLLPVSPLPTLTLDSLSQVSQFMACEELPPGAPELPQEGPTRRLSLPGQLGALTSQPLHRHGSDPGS
Series [4] has as its system 24 off-target liabilities (e.g. ion channels, G-protein receptors). Kind of series: 24 off-target liability screen. To be noted: tested by AbbVie.
For another series, the system named is P-gp. Kind of series: Diffusion across the MDCK-PGP monolayer. Type of series: in vitro ADME. The note with it: dog, MDCK-MDR1; predicts CNS penetration.
For the next series, the target named is Prkcn (Homo sapiens (Human), UniProt O94806). Kind of series: Kinase panel selectivity: Prkcn. Type of series: biochemical.
Chain of Prkcn (O94806 whole entry, looked up, species assumed): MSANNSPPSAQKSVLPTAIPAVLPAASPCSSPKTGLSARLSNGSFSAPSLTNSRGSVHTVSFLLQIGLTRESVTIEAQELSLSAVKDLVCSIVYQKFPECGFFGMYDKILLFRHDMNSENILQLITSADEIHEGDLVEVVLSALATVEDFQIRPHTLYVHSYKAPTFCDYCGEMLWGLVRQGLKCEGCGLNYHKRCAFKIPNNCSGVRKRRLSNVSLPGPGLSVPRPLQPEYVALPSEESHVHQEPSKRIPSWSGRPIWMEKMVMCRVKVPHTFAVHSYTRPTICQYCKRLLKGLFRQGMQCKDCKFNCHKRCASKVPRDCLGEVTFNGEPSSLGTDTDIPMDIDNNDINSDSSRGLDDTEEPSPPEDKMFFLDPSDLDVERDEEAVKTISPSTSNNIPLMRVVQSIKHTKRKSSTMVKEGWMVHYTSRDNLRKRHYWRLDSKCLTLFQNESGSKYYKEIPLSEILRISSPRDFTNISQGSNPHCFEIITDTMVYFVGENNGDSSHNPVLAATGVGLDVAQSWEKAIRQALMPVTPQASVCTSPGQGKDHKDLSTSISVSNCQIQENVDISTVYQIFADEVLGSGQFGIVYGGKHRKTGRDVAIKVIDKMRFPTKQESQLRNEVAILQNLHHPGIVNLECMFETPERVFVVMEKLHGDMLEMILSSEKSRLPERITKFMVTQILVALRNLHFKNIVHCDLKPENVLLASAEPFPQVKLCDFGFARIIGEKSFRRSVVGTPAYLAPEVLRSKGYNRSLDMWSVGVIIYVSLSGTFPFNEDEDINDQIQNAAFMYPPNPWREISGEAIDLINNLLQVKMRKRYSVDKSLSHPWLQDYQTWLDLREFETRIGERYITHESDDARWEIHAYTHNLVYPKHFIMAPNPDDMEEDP
Another series can be described thus: Cell toxicity in HepG2. Type of series: cell-based. The note with it: human, HepG2 cells (hepatocellular carcinoma); Table 4. How it is done:
All compounds were assayed for inhibition of TgCDPK1 and CpCDPK1 and on the small-gatekeeper (Thr) human kinases, Src and Abl. Human cell toxicity was evaluated in two human cell lines, HepG2 (hepatocellular carcinoma) and CRL8155 (lymphoblast, spleen). hERG inhibition has been associated with long Q-T syndrome (cardiotoxicity), and the compounds were evaluated for hERG inhibitory activity.

Series [5] can be described thus: Cytotoxicity against CRL8155 cell line. To be noted: human, CRL8155 cells (lymphoblast, spleen). Type of series: cell-based.
Series [6] concerns T. gondii Type 1 RH strain tachyzoites. The experiment in a line: T. gondii infection in mice. To be noted: CF-1 mice, peritoneal lavage day 8. Type of series: in vivo. The text has this:
1×10^5 T. gondii Type 1 RH strain tachyzoites expressing YFP were inoculated i.p. into 4-5 wk old female CF-1 mice (n=4). […] On day 8, the mice were killed, and underwent peritoneal lavage. T. gondii were enumerated via fluorescent microscopy and plotted, per mouse.

Chain of Kdr (P35968 20-1356, species assumed): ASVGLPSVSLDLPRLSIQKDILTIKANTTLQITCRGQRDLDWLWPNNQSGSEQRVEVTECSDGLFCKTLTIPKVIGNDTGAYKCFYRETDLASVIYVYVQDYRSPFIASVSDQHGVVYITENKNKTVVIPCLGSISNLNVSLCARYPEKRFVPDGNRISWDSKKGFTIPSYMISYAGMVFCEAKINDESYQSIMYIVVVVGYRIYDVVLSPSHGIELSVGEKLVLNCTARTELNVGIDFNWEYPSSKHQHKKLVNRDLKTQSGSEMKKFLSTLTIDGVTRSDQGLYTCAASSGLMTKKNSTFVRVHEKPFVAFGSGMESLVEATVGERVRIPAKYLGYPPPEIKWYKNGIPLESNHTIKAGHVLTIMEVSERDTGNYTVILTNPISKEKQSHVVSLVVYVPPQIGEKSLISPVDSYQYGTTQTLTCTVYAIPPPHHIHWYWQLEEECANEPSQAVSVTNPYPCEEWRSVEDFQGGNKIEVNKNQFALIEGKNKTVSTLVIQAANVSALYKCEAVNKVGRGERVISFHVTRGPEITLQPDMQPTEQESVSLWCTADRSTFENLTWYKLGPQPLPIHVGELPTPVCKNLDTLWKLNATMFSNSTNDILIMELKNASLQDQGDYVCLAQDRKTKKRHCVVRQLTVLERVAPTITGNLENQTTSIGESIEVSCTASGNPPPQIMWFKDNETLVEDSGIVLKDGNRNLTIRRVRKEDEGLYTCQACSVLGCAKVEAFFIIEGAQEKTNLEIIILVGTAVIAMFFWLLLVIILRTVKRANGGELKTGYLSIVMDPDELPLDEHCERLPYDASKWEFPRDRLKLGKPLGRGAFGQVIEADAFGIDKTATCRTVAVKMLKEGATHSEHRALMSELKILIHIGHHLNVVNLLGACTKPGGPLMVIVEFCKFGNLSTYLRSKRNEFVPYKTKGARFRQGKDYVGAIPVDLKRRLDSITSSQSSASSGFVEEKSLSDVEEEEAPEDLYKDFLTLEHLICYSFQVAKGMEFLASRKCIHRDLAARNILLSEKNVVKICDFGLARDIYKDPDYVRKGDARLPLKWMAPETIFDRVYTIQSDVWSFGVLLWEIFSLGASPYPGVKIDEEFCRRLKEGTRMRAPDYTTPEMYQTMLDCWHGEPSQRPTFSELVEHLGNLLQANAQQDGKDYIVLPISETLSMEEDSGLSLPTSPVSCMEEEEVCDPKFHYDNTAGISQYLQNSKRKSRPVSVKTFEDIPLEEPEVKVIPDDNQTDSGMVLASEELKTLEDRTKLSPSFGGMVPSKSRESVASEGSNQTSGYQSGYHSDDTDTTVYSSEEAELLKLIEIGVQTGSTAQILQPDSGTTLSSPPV

As to `CCOc1ccc2cc(-c3nn(C(C)(C)C)c(N)c3C(N)=O)cnc2c1` [Compound 39, 5-amino-1-(tert-butyl)-3-(7-ethoxyquinolin-3-yl)-1H-pyrazole-4-carboxamide], the “oral availability (in words)” value in [1] is recorded as “higher oral availability”. The EC50 in the series with C. parvum is 0.05 µM; in “Cell toxicity in HepG2” it was greater than 40 µM; in [5] (Table 2, read-out: Cytotoxicity (CRL8155) EC50) it was greater than 30 µM; in [5] (Table 3, read-out: Cytotoxicity (CRL8155) EC50), greater than 30 µM; in [5] (Table 4, read-out: Cell toxicity (EC50, μM) CRL 8155) it was greater than 40 µM. The “stability (in words)” value in series [2] was “good stability”. The half-maximal inhibitory concentration (IC50) at Kdr is 2.46 µM; against Prkcn, 1.11 µM. In addition, the Ki at Kdr worked out at 0.569 µM; at Prkcn it was 0.427 µM. Further, the “oocysts shed in mouse stool, treated vs vehicle” value in the series on C. parvum Iowa strain is recorded as “the difference was significant”. Moreover, the “inhibition of human protein kinases (panel of 80 hPKs)” value in series [3] is reported as “No hPKs were inhibited”. Besides, the “solubility (in words)” value in the series “Solubility at pH 6.5” is “good solubility”. Besides, the “hERG inhibitory activity (in words)” value at hERG is on record as “no hERG inhibitory activity”. In addition, the “signal in 24 off-target liability screen” value in series [4] was “no signal was detected”. Further, the Papp in the series with P-gp is 56.3 ×10⁻⁶ cm/s. Further, the entries for the “mean parasite burden decreased” value in series [6] (oral gavage 5/10 mg/kg [AM/PM] for 5 d) and in [6] (oral gavage 20/40 mg/kg [AM/PM] for 5 d) were 69% and 93%, respectively.

The values are drawn from US9518026B2, “5-aminopyrazole-4-carboxamide inhibitors of CDPK1 from T. gondii and C. parvum” (UNIVERSITY OF WASHINGTON THROUGH ITS CENTER FOR …, priority 2013, dated 2016).
